Key:
[1] = Staining of insoluble zinc phosphate (Example 1); type: binding
[2] = Staining of HAP spherules in sub-RPE deposits in flat mounts of cadaver tissues (FIG. 7); design: species or system human; conditions: for staining of HAP spherules in sub-RPE deposits: flat mounts of cadaver tissues; for staining pattern in retinal tissue: human cadaveric eyes, FIG. 7
Procedure: The protocol of the study adhered to the tenets of the Declaration for Helsinki regarding research involving human tissue.
(§1) Briefly, the insoluble salts (100 mg in 1 ml 25 mM MOPS pH 7.5 buffer) were stained with 100 ul of 1 mg/ml dye (0.02 nmol/uL of the Bone Tag 680 RD dye) in buffer for 20 minutes at room temperature, followed by two rinses with buffer. Approximately 100 ul of the precipitate (a slurry) was suspended in propylene glycol. Fluorescence emission spectra shown in FIG. 6 were obtained at the excitation wavelengths described in the legend. […] Sub-RPE deposits can be readily identified based on their characteristic faint autofluorescence at excitation: 488 nm and emission: 525 nm).

[3] = Staining of the elastin layer of the Bruch's membrane in cadaver retina; design: species or system human
[4] = Staining of monobasic calcium phosphate; type: binding; conditions: salt slightly soluble
Description: (§2) Hydroxyapatite Bio-Gel HTP resin (Bio-Rad catalog 130-0420) (Bio-Red Laboratories, Inc., Hercules, Calif.) was used as a model for hydroxyapatite in deposits for purposes of collecting emission spectra; stained resin particles were suspended in propylene glycol for fluorescence spectroscopy. Calcium phosphate tribasic (34-40% Ca basis, cat no. C5267), Calcium hydrogen phosphate dihydrate (dibasic, 98%, cat. No. 307653) and calcium phosphate monobasic monohydrate (>85%, cat no. 21053) were all products of Sigma Aldrich and used without further purification. Fluorescence spectra were obtained on a Spectronics AB-2 spectrophotofluorometer with a high pressure xenon lamp.
(§3) The dibasic form of calcium phosphate is listed as 98% pure. […] IRDye 680RD BoneTag was also tested on HAP and drusen. This probe is a long wavelength excitable fluorophore coupled to tetracycline designed as an in vivo bone stain (J. L. Kovar et al., 2011 Anal. Biochem. 416(2):167-173).

[5] = Fluorescent staining of zinc phosphate, specificity control (Example 2, FIG. 6); type: binding; conditions: 25 mM MOPS pH 7.5
Procedure: as §1

[6] = Staining of dibasic calcium phosphate (Example 1); type: binding; conditions: compared with HAP
Description: as §2, §3

[7] = Fluorescent staining of dibasic calcium phosphate, emission spectra (Example 2, FIG. 6); type: binding; conditions: 25 mM MOPS pH 7.5
Procedure: as §1

[8] = Fluorescent staining of authentic hydroxyapatite, emission spectra (Example 2, FIG. 6); type: binding; conditions: for fluorescence of stained hydroxyapatite: 100 mg salt in 25 mM MOPS pH 7.5, 20 minutes at room temperature, suspended in propylene glycol; for specificity for HAP in comparison to dibasic calcium phosphate or zinc phosphate: FIG. 6
Procedure: as §1

[9] = Staining of tribasic calcium phosphate; type: binding; conditions: compared with HAP
Description: as §2, §3

[10] = Fluorescent staining of HAP chromatographic medium as a model for drusen; type: binding
Description: as §2, §3

[11] = Fluorescent staining of cadaver posterior retinas (sub-RPE deposits, drusen); design: species or system human; conditions: for increase in apparent intensity over the fluorescent background of the sub-RPE alone: cadaver posterior retinas
[12] = Nile Red staining of neutral lipids in unfixed whole mounts with drusen on Bruch's membrane (FIG. 8); design: species or system human
Procedure: Flat mounts were stained with 1 mg/ml Alizarin Red S (Sigma-Aldrich; Ex: 532 nm Em:620 nm), 20 μM Bone-Tag 680RD (Li-Cor; Ex: 620 nm Em:680 nm), 1 mg/ml tetracycline (Sigma-Aldrich; Ex: 405 nm Em: 570 nm), and 1 mg/ml Xylenol Orange (Sigma-Aldrich; Ex: 532 nm Em:570 nm) in aqueous buffer for 20 minutes at room temperature. Nile Red (Invitrogen, Carsbad, Calif.; Ex: 532 nm Em: 620 nm) was first dissolved in acetone and then diluted in aqueous buffer to 3.5 mg/ml and tissues were incubated for 20 minutes at room temperature.
Without being bound by theory or mechanism, HAP may form on the surface of an existing structure at the RPE/BM interface, for example lipid droplets or lipoproteins. […] The composition of the inner core of HAP spherules was analyzed by mass spectrometric imaging (FIG. 3). […] The native chemical composition was then analysed with time-of-flight secondary ion mass spectrometry (TOF-SIMS), which is well suited, as it combines high lateral resolution (˜250 nm) and very high sensitivity in the range of parts per million, and can image molecular ions and organic molecules over a wide mass range. […] The m/e 184 ion (i.e. from the phosphocholine headgroup fragment from phospholipids) is readily detected by TOF-SIMS as a characteristic marker, so its absence from the spherules implies a strong predominance of cholesterol and/or cholesteryl esters within the spherules.

SMILES | adherence of stain to insoluble zinc phosphate [1] | staining of HAP spherules in sub-RPE deposits [2] | staining pattern in retinal tissue [2] | staining of the elastin layer of the Bruch's membrane [3] | staining of monobasic calcium phosphate [4] | staining of zinc phosphate [5] | staining of dibasic calcium phosphate [6] | staining of dibasic calcium phosphate [7] | fluorescence of stained hydroxyapatite [8] | specificity for HAP in comparison to dibasic calcium phosphate or zinc phosphate [8] | staining of tribasic calcium phosphate [9] | change in fluorescence quantum yield upon binding HAP [10] | fluorescent staining of HAP (fluorescence emission when bound) ([10]; HAP chromatographic medium, stained, rinsed in distilled water, suspended in propylene glycol) | contrast compared with tetracycline ([11]; cadaver posterior retina, excitation 550-600 nm, emission 650 nm) | increase in apparent intensity over the fluorescent background of the sub-RPE alone [11] | labelling of lipid inclusions in drusen [12]
O=C1c2ccccc2C(=O)c2c1cc(S(=O)(=O)O)c(O)c2O [Alizarin Red S, 9,10-dihydro-3,4-dihydroxy-9,10-dioxo-2-anthracenesulfonic acid] | did not appear that either stain was adhered | effectively stained spherules | very similar staining patterns | No staining | no staining was evident | did not stain significantly | less well than HAP | did not stain significantly | only significant fluorescence from stained specimens is observed with hydroxyapatite | specific for HAP | less well than HAP | substantial increase | bright fluorescence emission when bound to the HAP that did not rinse off despite repeated washes with buffer | two-fold | fifteen-fold | 
Cc1cc(C2(c3cc(C)c(O)c(CN(CC(=O)O)CC(=O)O)c3)OS(=O)(=O)c3ccccc32)cc(CN(CC(=O)O)CC(=O)O)c1O [Xylenol Orange] |  | effectively stained spherules | very similar staining patterns |  |  | did not stain significantly |  | did not stain significantly | only significant fluorescence from stained specimens is observed with hydroxyapatite | specific for HAP |  |  |  |  |  | 
CCN(CC)c1ccc2nc3c4ccccc4c(=O)cc-3oc2c1 [Nile Red] |  |  |  |  |  |  |  |  |  |  |  |  |  |  |  | labelled a large number of spherical inclusions
CN(C)[C@@H]1C(O)=C(C(N)=O)C(=O)[C@@]2(O)C(O)=C3C(=O)c4c(O)cccc4[C@@](C)(O)[C@H]3C[C@@H]12.Cl [Tetracycline HCl, Tetracycline hydrochloride] |  |  |  |  |  |  | less well than HAP |  |  |  | less well than HAP |  |  |  | eight-fold | 

From patent US9801955B2, “Methods and compositions for detecting drusen and predicting age-related macular degeneration” (University of Maryland, Baltimore, priority 2012, dated 2017)
